{"source": "patent US4581354A", "about": "“3-arylcarbonyl- and 3-cycloalkylcarbonyl-1-aminoalkyl-1H-indoles, compositions and use” (Sterling Drug Inc., priority 1985, dated 1986)", "note": "Structures can show the parent of a compound that is named as a salt.", "data": [{"test_system": "acetylcholine-induced abdominal constriction", "test": "animal or person", "type": "in vivo, mice", "settings": "Mus musculus, po, 100 mg./kg. oral; read-out: Ach percent inhibition", "units": {"inhibition in vivo at 100 mg/kg": "%"}, "values": [{"smiles": "COCCNc1ccc(C(=O)c2c(C)n(CCN3CCOCC3)c3ccccc23)cc1", "note": "[Example 26A, 2-methyl-3-[4-(2-methoxyethylamino)benzoyl]-1-[2-(4-morpholinyl)ethyl]-1H-indole]", "inhibition in vivo at 100 mg/kg": 40}, {"smiles": "Cc1c(C(=O)c2ccc(N3CCCC(O)C3)cc2)c2ccccc2n1CCN1CCOCC1", "note": "(stereo not drawn) [Example 26B]", "inhibition in vivo at 100 mg/kg": 40}, {"smiles": "Cc1c(C(=O)c2ccc(N3CCNCC3)cc2)c2ccccc2n1CCN1CCOCC1", "note": "[Example 26C]", "inhibition in vivo at 100 mg/kg": 30}, {"smiles": "Cc1c(C(=O)c2ccc(N3CCC(O)CC3)cc2)c2ccccc2n1CCN1CCOCC1", "note": "[Example 26D]", "inhibition in vivo at 100 mg/kg": 30}, {"smiles": "Cc1c(C(=O)c2ccc(N3CCOCC3)cc2)c2ccccc2n1CCN1CCOCC1", "note": "[Example 26G]", "inhibition in vivo at 100 mg/kg": 20}, {"smiles": "COc1ccc(C(=O)c2c(C)n(CCCNCCCCl)c3ccccc23)cc1", "note": "[Example 28, 1-[3-(3-chloropropylamino)propyl]-2-methyl-3-(4-methoxybenzoyl)-1H-indole hydrochloride]", "inhibition in vivo at 100 mg/kg": 90}, {"smiles": "COc1ccc(C(=O)c2c(C)n(CCCN3CC[S+]([O-])CC3)c3ccc(F)cc23)cc1", "note": "[Example 29A, 5fluoro-2-methyl-3-(4-methoxybenzoyl)-1-[3-(4-thiomorpholinyl)propyl]-1H-indole S-oxide maleate]", "inhibition in vivo at 100 mg/kg": 60}, {"smiles": "COc1ccc(C(=O)c2c(C)n(CCN3CC[S+]([O-])CC3)c3ccccc23)cc1", "note": "[Example 29B, 2-methyl-3-(4-methoxybenzoyl)-1-[2-(4-thiomorpholinyl)ethyl]-1H-indole S-oxide maleate]", "inhibition in vivo at 100 mg/kg": 60}]}, {"test_system": "acetylcholine-induced abdominal constriction", "test": "animal or person", "type": "in vivo, mice", "settings": "Mus musculus, po; read-out: Ach ED50", "units": {"ED50": "mg/kg"}, "values": [{"smiles": "COc1ccc(C(=O)c2c(C)n(CCN3CCN(C(C)=O)CC3)c3ccccc23)cc1.O=C(O)/C=C\\C(=O)O", "note": "[Example 23A, 1-[2-(4-acetyl-1-piperazinyl)ethyl]-2-methyl-3-(4-methoxybenzoyl)-1H-indole maleate (1:1)]", "ED50": 85}, {"smiles": "COc1ccc(C(=O)c2c(C)n(CCCN3CCN(C(C)=O)CC3)c3ccc(F)cc23)cc1.CS(=O)(=O)O", "note": "[Example 23B, 5-fluoro-2-methyl-3-(4-methoxybenzoyl)-1-[3-(4-acetyl-1-piperazinyl)propyl]-1H-indole methanesulfonate]", "ED50": 39}, {"smiles": "COc1ccc(C(=O)c2c(C)n(CCCN)c3ccc(F)cc23)cc1.O=C(O)/C=C\\C(=O)O", "note": "[Example 25A, 1-(3-aminopropyl)-5-fluoro-2-methyl-3-(4-methoxybenzoyl)-1H-indole maleate (1:1)]", "ED50": 82.5}, {"smiles": "COc1ccc(C(=O)c2c(C)n(CCN)c3ccccc23)cc1.O=C(O)/C=C\\C(=O)O", "note": "[Example 25B, 1-(2-aminoethyl)-2-methyl-3-(4-methoxybenzoyl)-1H-indole maleate]", "ED50": 42}, {"smiles": "Cc1c(C(=O)c2ccc(-n3ccnc3)cc2)c2ccccc2n1CCN1CCOCC1", "note": "[Example 26E]", "ED50": 73.1}, {"smiles": "Cc1c(C(=O)c2ccc(-n3ccnc3)cc2)c2cc(F)ccc2n1CCCN1CCOCC1", "note": "[Example 26F]", "ED50": 61}, {"smiles": "COc1ccc(C(=O)c2c(C)n(CCN3CCNCC3)c3ccccc23)cc1.CS(=O)(=O)O.CS(=O)(=O)O", "note": "[Example 27A, 2-methyl-3-(4-methoxybenzoyl)-1-[2-(1-piperazinyl)ethyl]-1H-indole dimethanesulfonate]", "ED50": 20.7}, {"smiles": "COc1ccc(C(=O)c2c(C)n(CCNCCO)c3ccccc23)cc1", "note": "[Example 27B, 1-[2-(2-hydroxyethylamino)ethyl]-2-methyl-3-(4-methoxybenzoyl)-1H-indole]", "ED50": 59.8}, {"smiles": "COc1ccc(C(=O)c2c(C)n(CCN3CCCC(N)C3)c3ccccc23)cc1.O=C(O)/C=C\\C(=O)O.O=C(O)/C=C\\C(=O)O", "note": "(stereo not drawn) [Example 27C, 1-[2-(3-amino-1-piperidinyl)ethyl]-2-methyl-3-(4-methoxybenzoyl)-1H-indole maleate (1:2)]", "ED50": 29.4}, {"smiles": "COc1ccc(C(=O)c2c(C)n(CCCN3CCNCC3)c3ccc(F)cc23)cc1.CS(=O)(=O)O.CS(=O)(=O)O", "note": "[Example 27D, 5-fluoro-2-methyl-3-(4-methoxybenzoyl)-1-[3-(1-piperazinyl)propyl]-1H-indole dimethanesulfonate]", "ED50": 30}]}]}
